Data: PMC12328261, “Modulating Antimicrobial Activity and Structure of the Peptide Esc(1‐21) via Site‐Specific Isopeptide Bond Formation” (Journal of Peptide Science, 2025)
*1 amine or outer side, *2 acyl side, *3 side chain or, on linkers, in order; H or OH if unused. Where a SMILES comes first, the peptide text is derived from it. Bridges are numbered along the chain shown (N, C = ends). Roman numbers before positions name the chains, in order. Where no end group is shown, it is not given here. Side-chain parts run from the residue outwards. [ ]: non-standard residue; d: D form. εLys = N[C@@H](CCCCN[*:1])C(=O)[*:2]

How the values were obtained:
E. coli ATCC 25922 = type: cell-based, Escherichia coli
Experimental: (§1) The antimicrobial activity of Esc(1‐21) analogs was assessed by determining the minimal inhibitory concentration (MIC) against a panel of representative Gram‐negative and Gram‐positive bacteria. […] The bacteria were then diluted in Mueller‐Hinton (MH) broth at a concentration of 2 × 10^6 colony‐forming units (CFU)/mL. Aliquots (50 μL) were added to 50 μL of MH containing serial two‐fold dilutions of the peptides, which had been previously prepared in the wells of a 96‐well plate, achieving a final cell concentration of 10^6 CFU/mL. […] To evaluate the antibiofilm activity of the tested peptides, bacteria were diluted to a cell density of 10^6 CFU/mL and aliquots of 100 μL were dispensed into the wells of a 96‐multiwell plate and incubated for 20 h at 37°C to allow biofilm formation. Planktonic cells were then removed, and each well was washed twice with 150 μL of phosphate buffered saline (PBS). Each well was filled with PBS supplemented with different 2‐fold serial dilutions of the tested peptides and the plate was incubated for 2 h at 37°C. After two washes with PBS, biofilm viability was assessed by adding 150 μL of MTT (0.5 mg/mL). The plate was incubated for 4 h at 37°C and the reaction was then stopped by adding SDS (final concentration equal to 5% v/v). The absorbance of each well was measured at 570 nm with a microplate reader (Infinite M200; Tecan, Salzburg, Austria), and the percentage of biofilm viability was calculated with respect to the untreated samples.

S. aureus ATCC 25923 = type: cell-based, Staphylococcus aureus
Experimental: as §1

[1] = tested on: S. epidermidis ATCC 12228; type: cell-based, Staphylococcus epidermidis
Experimental: as §1

P. aeruginosa ATCC 27853 = type: cell-based, Pseudomonas aeruginosa
Experimental: as §1

P. aeruginosa ATCC 15692 = type: cell-based, Pseudomonas aeruginosa
Experimental: as §1

RBCs = tested on: RBCs; set-up: method as in PMID 32722535; conditions: 64 µM; cited from earlier work

| Compound | Antimicrobial activity (MIC) (E. coli ATCC 25922) [µM] | Antimicrobial activity (MIC) (S. aureus ATCC 25923) [µM] | Antimicrobial activity (MIC) [1] [µM] | Antimicrobial activity (MIC) (P. aeruginosa ATCC 27853) [µM] | Antimicrobial activity (MIC) (P. aeruginosa ATCC 15692) [µM] | Hemolysis (RBCs) |
| --- | --- | --- | --- | --- | --- | --- |
| CC[C@H](C)[C@H](NC(=O)CN)C(=O)N[C@@H](Cc1ccccc1)C(=O)N[C@@H](CO)C(=O)NCCCC[C@H](N)C(=O)N[C@@H](CC(C)C)C(=O)N[C@@H](C)C(=O)NCC(=O)N[C@@H](CCCCN)C(=O)N[C@@H](CCCCN)C(=O)N[C@H](C(=O)N[C@@H](CCCCN)C(=O)N[C@@H](CC(N)=O)C(=O)N[C@@H](CC(C)C)C(=O)N[C@@H](CC(C)C)C(=O)N[C@H](C(=O)N[C@@H](CO)C(=O)NCC(=O)N[C@@H](CC(C)C)C(=O)N[C@@H](CCCCN)C(=O)NCC(N)=O)[C@@H](C)CC)[C@@H](C)CC [Esc(1‐21)ε5] (H-K([Ser-Phe-Ile-Gly])LAGKKIKNLLISGLKG-NH2) | 3.12 | > 50 | 25 | 12.5 | 6.25 |  |
| CC[C@H](C)[C@H](NC(=O)CN)C(=O)N[C@@H](Cc1ccccc1)C(=O)N[C@@H](CO)C(=O)N[C@@H](CCCCN)C(=O)N[C@@H](CC(C)C)C(=O)N[C@@H](C)C(=O)NCC(=O)NCCCC[C@H](N)C(=O)N[C@@H](CCCCN)C(=O)N[C@H](C(=O)N[C@@H](CCCCN)C(=O)N[C@@H](CC(N)=O)C(=O)N[C@@H](CC(C)C)C(=O)N[C@@H](CC(C)C)C(=O)N[C@H](C(=O)N[C@@H](CO)C(=O)NCC(=O)N[C@@H](CC(C)C)C(=O)N[C@@H](CCCCN)C(=O)NCC(N)=O)[C@@H](C)CC)[C@@H](C)CC [Esc(1‐21)ε9] (I: H-KKIKNLLISGLKG-NH2 / II: H-GIFSKLAG; amide I:1-II:C) | 3.12 | > 50 | 12.5 | 6.25 | 6.25 |  |
| CC[C@H](C)[C@H](NC(=O)CN)C(=O)N[C@@H](Cc1ccccc1)C(=O)N[C@@H](CO)C(=O)N[C@@H](CCCCN)C(=O)N[C@@H](CC(C)C)C(=O)N[C@@H](C)C(=O)NCC(=O)N[C@@H](CCCCN)C(=O)NCCCC[C@H](N)C(=O)N[C@H](C(=O)N[C@@H](CCCCN)C(=O)N[C@@H](CC(N)=O)C(=O)N[C@@H](CC(C)C)C(=O)N[C@@H](CC(C)C)C(=O)N[C@H](C(=O)N[C@@H](CO)C(=O)NCC(=O)N[C@@H](CC(C)C)C(=O)N[C@@H](CCCCN)C(=O)NCC(N)=O)[C@@H](C)CC)[C@@H](C)CC [Esc(1‐21)ε10] (I: H-KIKNLLISGLKG-NH2 / II: H-GIFSKLAGK; amide I:1-II:C) | 6.25 | > 50 | 25 | 12.5 | 6.25 |  |
| CC[C@H](C)[C@H](NC(=O)CN)C(=O)N[C@@H](Cc1ccccc1)C(=O)N[C@@H](CO)C(=O)N[C@@H](CCCCN)C(=O)N[C@@H](CC(C)C)C(=O)N[C@@H](C)C(=O)NCC(=O)N[C@@H](CCCCN)C(=O)N[C@@H](CCCCN)C(=O)N[C@H](C(=O)NCCCC[C@H](N)C(=O)N[C@@H](CC(N)=O)C(=O)N[C@@H](CC(C)C)C(=O)N[C@@H](CC(C)C)C(=O)N[C@H](C(=O)N[C@@H](CO)C(=O)NCC(=O)N[C@@H](CC(C)C)C(=O)N[C@@H](CCCCN)C(=O)NCC(N)=O)[C@@H](C)CC)[C@@H](C)CC [Esc(1‐21)ε12] (H-GIFSKLAGKKI[εLys]NLLISGLKG-NH2) | 25 | > 50 | > 50 | 25 | 25 |  |
| CC[C@H](C)[C@H](NC(=O)CN)C(=O)N[C@@H](Cc1ccccc1)C(=O)N[C@@H](CO)C(=O)N[C@@H](CCCCN)C(=O)N[C@@H](CC(C)C)C(=O)N[C@@H](C)C(=O)NCC(=O)N[C@@H](CCCCN)C(=O)N[C@@H](CCCCN)C(=O)N[C@H](C(=O)N[C@@H](CCCCN)C(=O)N[C@@H](CC(N)=O)C(=O)N[C@@H](CC(C)C)C(=O)N[C@@H](CC(C)C)C(=O)N[C@H](C(=O)N[C@@H](CO)C(=O)NCC(=O)N[C@@H](CC(C)C)C(=O)NCCCC[C@H](N)C(=O)NCC(N)=O)[C@@H](C)CC)[C@@H](C)CC [Esc(1‐21)ε20] (H-GIFSKLAGKKIKNLLISGL[εLys]G-NH2) | 1.56 | > 50 | 3.12 | 1.56 | 1.56 |  |
| GIFSKLAGKKIKNLLISGLKG-NH2 [Esc(1‐21), Esculentin‐1a(1‐21)NH2] |  |  |  |  |  | 10-15% |
